Test results published in patent publication US3984481A, “Bis-2-substituted-thiovinyl sulfones” (Chevron Research Company, priority 1976, dated 1976).
Read-outs that look alike come from different tables or passages of the source.

Tests used:
Aspergillus niger = assay: Mycelial inhibition test
Rhizoctonia solani = assay: Mycelial inhibition test
Elodea = assay: Algae control (aquatic weed control) test; type: in vivo; details: read-out: Percent Aquatic Weed Control
Method: (§1) Representative compounds of the invention were tested as algicides by the following method. The algae test species were Lemna, Elodea and Spirolina. An acetone solution of the test compound and a small amount of an alkylarylpolyoxyethylene glycol-containing surfactant was prepared. This solution was mixed with a nutrient broth in a quantity sufficient to give a concentration of 2 ppm. A 240 ml container was filled with this mixture. A sample of the test algae was added to each container and the container was then placed in an illuminated environment and maintained at a temperature of about 20°C for incubation. The containers were observed periodically for algae growth (as compared to an untreated check). The algicidal effectiveness of the test compound was determined based on a final observation of algae growth after 7 to 10 days. The results of the test on a 0 to 100 basis -- 0 indicating no effectiveness and 100 indicating complete effectiveness -- are reported in Table III.

Lemna = assay: Algae control (aquatic weed control) test; type: in vivo; details: read-out: Percent Aquatic Weed Control
Method: as §1

Fusarium moniloforma = assay: Mycelial inhibition test
Pythium ultimum = assay: Mycelial inhibition test
Spirolina = assay: Algae control (aquatic weed control) test; type: in vivo; details: read-out: Percent Aquatic Weed Control
Method: as §1

Botrytis cinerea = assay: Mycelial inhibition test
[1] = Aspergillus niger, 99% control, 25°C, 24 hours, 500 ppm acetone solution sprayed
[2] = Rhizoctonia solani, 99% control, 25°C, 24 hours, 500 ppm acetone solution sprayed
[3] = Elodea, 2 ppm, 20°C, 7 to 10 days, 0 no effectiveness, 100 complete effectiveness
[4] = 2 ppm, 20°C, 7 to 10 days, 0 no effectiveness, 100 complete effectiveness
[5] = Fusarium moniloforma, 99% control, 25°C, 24 hours, 500 ppm acetone solution sprayed
[6] = Pythium ultimum, 99% control, 25°C, 24 hours, 500 ppm acetone solution sprayed
[7] = Spirolina, 2 ppm, 20°C, 7 to 10 days, 0 no effectiveness, 100 complete effectiveness
[8] = Botrytis cinerea, 99% control, 25°C, 24 hours, 500 ppm acetone solution sprayed

O=S(=O)(C=CSc1ccc(Cl)cc1)C=CSc1ccc(Cl)cc1 [Compound 1]
Mycelia Inhibition, micrograms/cm^2 for 99% control (Aspergillus niger; [1]): 0.86 micrograms/cm^2
Mycelia Inhibition, micrograms/cm^2 for 99% control (Rhizoctonia solani; [2]): 0.9 micrograms/cm^2
inhibition at 2 ppm (Elodea; [3]): 97%
inhibition at 2 ppm (Lemna; [4]): 68%
Mycelia Inhibition, micrograms/cm^2 for 99% control (Fusarium moniloforma; [5]): > 1.7 micrograms/cm^2
Mycelia Inhibition, micrograms/cm^2 for 99% control (Pythium ultimum; [6]): 0.22 micrograms/cm^2

O=S(=O)(C=CSc1cccc(Cl)c1)C=CSc1cccc(Cl)c1 [Compound 2]
Mycelia Inhibition, micrograms/cm^2 for 99% control (Aspergillus niger; [1]): 1.1 micrograms/cm^2
Mycelia Inhibition, micrograms/cm^2 for 99% control (Rhizoctonia solani; [2]): 1.5 micrograms/cm^2
inhibition at 2 ppm (Spirolina; [7]): 0%
inhibition at 2 ppm (Elodea; [3]): 94%
inhibition at 2 ppm (Lemna; [4]): 100%
Mycelia Inhibition, micrograms/cm^2 for 99% control (Fusarium moniloforma; [5]): > 1.7 micrograms/cm^2
Mycelia Inhibition, micrograms/cm^2 for 99% control (Pythium ultimum; [6]): > 1.7 micrograms/cm^2
Mycelia Inhibition, micrograms/cm^2 for 99% control (Botrytis cinerea; [8]): 1.2 micrograms/cm^2

O=S(=O)(C=CSc1ccc(Br)cc1)C=CSc1ccc(Br)cc1 [Compound 3, bis-2-(4-bromophenylthio)vinyl sulfone]
Mycelia Inhibition, micrograms/cm^2 for 99% control (Aspergillus niger; [1]): 0.73 micrograms/cm^2
Mycelia Inhibition, micrograms/cm^2 for 99% control (Rhizoctonia solani; [2]): 1.4 micrograms/cm^2
inhibition at 2 ppm (Spirolina; [7]): 40%
inhibition at 2 ppm (Elodea; [3]): 94%
inhibition at 2 ppm (Lemna; [4]): 94%
Mycelia Inhibition, micrograms/cm^2 for 99% control (Fusarium moniloforma; [5]): > 1.7 micrograms/cm^2
Mycelia Inhibition, micrograms/cm^2 for 99% control (Pythium ultimum; [6]): > 1.7 micrograms/cm^2
Mycelia Inhibition, micrograms/cm^2 for 99% control (Botrytis cinerea; [8]): 1.4 micrograms/cm^2

O=S(=O)(C=CSc1cc(Cl)ccc1Cl)C=CSc1cc(Cl)ccc1Cl [Compound 4]
Mycelia Inhibition, micrograms/cm^2 for 99% control (Aspergillus niger; [1]): > 1.7 micrograms/cm^2
Mycelia Inhibition, micrograms/cm^2 for 99% control (Rhizoctonia solani; [2]): 1.2 micrograms/cm^2
inhibition at 2 ppm (Spirolina; [7]): 80%
inhibition at 2 ppm (Elodea; [3]): 70%
inhibition at 2 ppm (Lemna; [4]): 39%
Mycelia Inhibition, micrograms/cm^2 for 99% control (Fusarium moniloforma; [5]): > 1.7 micrograms/cm^2
Mycelia Inhibition, micrograms/cm^2 for 99% control (Pythium ultimum; [6]): > 1.7 micrograms/cm^2
Mycelia Inhibition, micrograms/cm^2 for 99% control (Botrytis cinerea; [8]): 0.70 micrograms/cm^2

O=S(=O)(C=CSc1ccc(F)cc1)C=CSc1ccc(F)cc1 [Compound 5]
Mycelia Inhibition, micrograms/cm^2 for 99% control (Aspergillus niger; [1]): > 1.7 micrograms/cm^2
Mycelia Inhibition, micrograms/cm^2 for 99% control (Rhizoctonia solani; [2]): > 1.7 micrograms/cm^2
inhibition at 2 ppm (Spirolina; [7]): 80%
inhibition at 2 ppm (Elodea; [3]): 70%
inhibition at 2 ppm (Lemna; [4]): 30%
Mycelia Inhibition, micrograms/cm^2 for 99% control (Fusarium moniloforma; [5]): > 1.7 micrograms/cm^2
Mycelia Inhibition, micrograms/cm^2 for 99% control (Pythium ultimum; [6]): > 1.7 micrograms/cm^2
Mycelia Inhibition, micrograms/cm^2 for 99% control (Botrytis cinerea; [8]): > 1.7 micrograms/cm^2

O=[N+]([O-])c1ccc(SC=CS(=O)(=O)C=CSc2ccc([N+](=O)[O-])cc2)cc1 [Compound 6]
Mycelia Inhibition, micrograms/cm^2 for 99% control (Aspergillus niger): 0.34 micrograms/cm^2
Mycelia Inhibition, micrograms/cm^2 for 99% control (Rhizoctonia solani): 0.50 micrograms/cm^2
inhibition at 2 ppm (Spirolina): 90%
inhibition at 2 ppm (Elodea): 78%
inhibition at 2 ppm (Lemna): 99%
Mycelia Inhibition, micrograms/cm^2 for 99% control (Fusarium moniloforma): > 1.7 micrograms/cm^2
Mycelia Inhibition, micrograms/cm^2 for 99% control (Pythium ultimum): 0.73 micrograms/cm^2
Mycelia Inhibition, micrograms/cm^2 for 99% control (Botrytis cinerea): 0.7 micrograms/cm^2

O=S(=O)(C=CSc1ccc(Cl)c(Cl)c1)C=CSc1ccc(Cl)c(Cl)c1 [Compound 7]
Mycelia Inhibition, micrograms/cm^2 for 99% control (Aspergillus niger; [1]): 1.1 micrograms/cm^2
Mycelia Inhibition, micrograms/cm^2 for 99% control (Rhizoctonia solani; [2]): 0.97 micrograms/cm^2
inhibition at 2 ppm (Spirolina; [7]): 95%
inhibition at 2 ppm (Elodea; [3]): 90%
inhibition at 2 ppm (Lemna; [4]): 70%
Mycelia Inhibition, micrograms/cm^2 for 99% control (Fusarium moniloforma; [5]): 1.0 micrograms/cm^2
Mycelia Inhibition, micrograms/cm^2 for 99% control (Pythium ultimum; [6]): 0.78 micrograms/cm^2
Mycelia Inhibition, micrograms/cm^2 for 99% control (Botrytis cinerea; [8]): 0.70 micrograms/cm^2

O=S(=O)(C=CSc1ccccc1)C=CSc1ccccc1 [Compound 8]
Mycelia Inhibition, micrograms/cm^2 for 99% control (Aspergillus niger; [1]): 0.50 micrograms/cm^2
Mycelia Inhibition, micrograms/cm^2 for 99% control (Rhizoctonia solani; [2]): 0.88 micrograms/cm^2
inhibition at 2 ppm (Spirolina; [7]): 30%
inhibition at 2 ppm (Elodea; [3]): 39%
inhibition at 2 ppm (Lemna; [4]): 0%
Mycelia Inhibition, micrograms/cm^2 for 99% control (Fusarium moniloforma; [5]): > 1.7 micrograms/cm^2
Mycelia Inhibition, micrograms/cm^2 for 99% control (Pythium ultimum; [6]): > 1.7 micrograms/cm^2
Mycelia Inhibition, micrograms/cm^2 for 99% control (Botrytis cinerea; [8]): 1.5 micrograms/cm^2

O=S(=O)(CCSc1ccc(Cl)cc1)CCSc1ccc(Cl)cc1 [Compound 10, bis-2-(4-chlorophenylthio)ethyl sulfone, reference compound]
Mycelia Inhibition, micrograms/cm^2 for 99% control (Aspergillus niger; [1]): > 1.7 micrograms/cm^2
Mycelia Inhibition, micrograms/cm^2 for 99% control (Rhizoctonia solani; [2]): > 1.7 micrograms/cm^2
inhibition at 2 ppm (Spirolina; [7]): 0%
inhibition at 2 ppm (Elodea; [3]): 0%
inhibition at 2 ppm (Lemna; [4]): 0%
Mycelia Inhibition, micrograms/cm^2 for 99% control (Fusarium moniloforma; [5]): > 1.7 micrograms/cm^2
Mycelia Inhibition, micrograms/cm^2 for 99% control (Pythium ultimum; [6]): > 1.7 micrograms/cm^2
Mycelia Inhibition, micrograms/cm^2 for 99% control (Botrytis cinerea; [8]): > 1.7 micrograms/cm^2
